“Also recorded” adds a separate entry of the source.
Legend:
[1] = tested on: GluR1 S831 and GluR1 S845; assay: AMPAR GluR1 subunit phosphorylation in hippocampus after post-seizure AMPAR antagonist treatment in vivo; set-up: species or system rat; conditions: for GluR1 S845 phosphorylation: 12 hours after hypoxia-induced seizures; for GluR1 S845 phosphorylation / GluR1 S831 phosphorylation: single systemic dose within 30 minutes after seizures, vs vehicle; for GluR1 S831 phosphorylation: 12 hours after hypoxic seizures; for GluR1 subunit phosphorylation: post-treatment during the early period after seizure induction
Description: The strength of synaptic transmission in intact neuronal networks, such as in LTP, can be regulated by altered AMPAR function mediated by phosphorylation of GluR1 S831 and GluR1 S845 (Barria et al., 1997; Lee et al., 2000; Lee et al., 2003).
(§1) To determine whether seizure-induced activation of AMPAR plays a critical role in the alterations in EPSCs and subunits reported here, we examined whether pharmacologic inhibition of AMPARs in vivo following hypoxic seizures leads to a decrease in the activity of Ca^2+ dependent protein kinases and GluR1 subunit phosphorylation state. […] Within 30 minutes after hypoxic seizures, rats were treated with a single dose of systemically administered AMPAR antagonists NBQX (20 mg/kg), topiramate (30 mg/kg) or GYKI-53773 (7.5 mg/kg), and compared to vehicle-treated (0.1 ml PBS) hypoxic controls and normoxic littermates.

CaMKII = CaMKII activity (ELISA) after hypoxic seizures and in vivo AMPAR antagonist treatment; conditions: 1 hour following hypoxic seizures; in vivo administration vs vehicle
Method: (§2) Protein kinase A (PKA) […] mediates the phosphorylation of GluR1 S845 and protein kinase C (PKC) is involved in the phosphorylation of both GluR1 S831 (Kameyama et al., 1998; Mammen et al., 1997) and GluR2 S880 (Seidenman et al., 2003). […] Similarly, CaMKII activity increased at 1 hour post-seizures before returning to baseline levels at 6 hours post-hypoxia. […] The rapid seizure-induced activation of these protein kinases are occurring coincident with the alterations in phosphorylation state of their known substrates, GluR1 S831, GluR1 S845, and GluR2 S880.
as §1, with “littermates. These treatment doses are the same as the treatment paradigm in which we previously observed an attenuation of long-term epileptogenic changes (Koh et al., 2004). […] Importantly, blockade of AMPAR-mediated neurotransmission is the common mechanistic feature of these three structurally unrelated compounds and may represent the potential mode of mediating alterations.” for “littermates.”

PKA = PKA activity (ELISA) after hypoxic seizures and in vivo AMPAR antagonist treatment; set-up: species or system rat; conditions: 1 hour following hypoxic seizures; vs vehicle
Method: as §2
as §1, with “littermates. These treatment doses are the same as the treatment paradigm in which we previously observed an attenuation of long-term epileptogenic changes (Koh et al., 2004). […] Importantly, blockade of AMPAR-mediated neurotransmission is the common mechanistic feature of these three structurally unrelated compounds and may represent the potential mode of mediating alterations.” for “littermates.”

PKC = PKC activity (ELISA) after hypoxic seizures and in vivo AMPAR antagonist treatment; set-up: species or system rat; conditions: 6 hours post-hypoxic seizures; vs vehicle
Method: as §2
as §1, with “littermates. These treatment doses are the same as the treatment paradigm in which we previously observed an attenuation of long-term epileptogenic changes (Koh et al., 2004). […] Importantly, blockade of AMPAR-mediated neurotransmission is the common mechanistic feature of these three structurally unrelated compounds and may represent the potential mode of mediating alterations.” for “littermates.”

[2] = tested on: AMPAR-mediated sEPSCs in CA1 neurons; assay: AMPAR-mediated sEPSCs in ex vivo hippocampal slices after post-seizure treatment in vivo; set-up: species or system rat; conditions: for sEPSC amplitude / sEPSC frequency: hippocampal slices prepared 1 hour after administration post hypoxic seizure, vs vehicle; for acute and subacute enhancement in AMPAR EPSCs: post-treatment during the early period after seizure induction
Method: Neonatal seizures have been described to enhance the excitability of hippocampal networks as well as cause alterations in long-term network excitability (Jensen et al., 1991; Sanchez et al., 2001; Silverstein and Jensen, 2007; Cornejo et al., 2007), but their acute effects on AMPAR function have not been examined. We compared spontaneous (s) and miniature (m) AMPAR-mediated excitatory postsynaptic currents (EPSCs) in CA1 pyramidal neurons in P10 rat pup hippocampal slices removed 1 hour after hypoxia-induced seizures (hypoxic seizures) and normoxic control rat pups.
Following hypoxic seizures, NBQX, topiramate or GYKI-53773 were administered to the rat pups experiencing hypoxic seizures and hippocampal slices were prepared 1 hour after administration of AMPAR antagonists.

[3] = cited from earlier work
KA-induced seizures = assay: Susceptibility to KA-induced seizures 3 days after hypoxic seizures at P10; assay type: in vivo, rat
Method: We have previously reported that enhanced hippocampal excitability observed in rat pups following hypoxia-induced seizures is reflected in the increased susceptibility to KA-induced seizures in these animals at both short (72-96 h) and long (40+ days) intervals following the initial seizures at P10 (Koh et al., 2004).

hypoxia-induced seizures = conditions: post-seizure treatment within the first 48 hours following hypoxic seizures; cited from earlier work
GluR2-lacking AMPARs = assay: Evoked EPSC recording in CA1 pyramidal neurons of hippocampal slices removed 1 hour after hypoxic seizures; assay type: cell-based, rat; conditions: bath application 10 μM; slices 1 hour after in vivo seizures in P10 pup; compared to normoxic controls
Method: The age window around P10-12 is characterized by a relative preponderance of Ca^2+ permeable AMPARs in hippocampal and neocortical neurons resulting from a developmentally regulated decrease in GluR2 subunit expression (Sanchez et al., 2001; Durand and Zukin, 1993; Talos et al., 2006b; Kumar et al., 2002). Additionally, hypoxic seizures have been previously associated with a decrease in the expression of GluR2 mRNA and protein 48 hours following the induction of seizures (Sanchez et al., 2001). However the acute alterations in the phosphorylation and function of GluR-2 lacking AMPARs following hypoxic seizures have not been well-characterized. […] Expression of inwardly rectifying AMPAR-mediated currents can result from an increase in phosphorylation of GluR2 S880 and resultant trafficking of the GluR2 subunit out of the synaptic membrane (Chung et al., 2000; Kim et al., 2001; Seidenman et al., 2003). Indeed, GluR2 S880 phosphorylation was increased in the hippocampus of rats experiencing hypoxic seizures as compared to normoxic litter mates, maximal at 12 hours post hypoxia. This seizure-induced phosphorylation of GluR2 S880 may contribute to the subacute changes in GluR2 expression reported previously (Sanchez et al., 2001), as well as increased inward rectification of EPSPs reported above.

neonatal seizures = conditions: cited from earlier work

Row | SMILES | GluR1 S845 phosphorylation [1] | GluR1 S831 phosphorylation [1] | GluR1 subunit phosphorylation [1] | activity of CaMKII (CaMKII) | seizure-induced PKA activation (PKA) | seizure-induced increase in PKC activity (PKC) | sEPSC amplitude [2] | sEPSC frequency [2] | acute and subacute enhancement in AMPAR EPSCs [2] | cognitive impairment ([3]; preliminary human studies) | latency to seizures (KA-induced seizures; P13, 20 mg/kg i.p., compared to vehicle treated hypoxic controls) | maximal seizure severity (KA-induced seizures; P13, 20 mg/kg i.p., compared to vehicle-treated pups with prior hypoxic seizures) | enhanced seizure susceptibility (KA-induced seizures; at P13 (72 hours post-hypoxic seizures), 20 mg/kg i.p. following hypoxic seizures, KA 2 mg/kg i.p.) | long-term increase in susceptibility to seizures (hypoxia-induced seizures) | seizure-induced neuronal injury (hypoxia-induced seizures) | eEPSCs in CA1 pyramidal neurons post-hypoxia (GluR2-lacking AMPARs) | infants with neonatal seizures in whom efficacy for acute seizure suppression is lacking (neonatal seizures; first line therapy) | effect on long-term outcome (neonatal seizures; infants with neonatal seizures) | threshold for memory impairment ([3]; healthy volunteers and patients with epilepsy)
1 | CC(=O)N1N=C(c2ccc(N)cc2)c2cc3c(cc2C[C@H]1C)OCO3 [GYKI-53773] | significantly reduced to baseline normoxia levels | significantly reduced to baseline normoxia levels | blocked | reduced to near baseline levels; also recorded: blocked | blocked | significantly reduced; also recorded: blocked | significantly attenuated | attenuation | blocked | less cognitive impairment | – | – | – | – | – | – | – | – | –
2 | NS(=O)(=O)c1cccc2c1c([N+](=O)[O-])cc1nc(O)c(O)nc12 [NBQX] | significantly reduced to baseline normoxia levels | significantly reduced to baseline normoxia levels | blocked | reduced to near baseline levels; also recorded: blocked | reduced significantly; also recorded: blocked | significantly reduced; also recorded: blocked | significantly attenuated | attenuation | blocked | – | significantly longer | significantly lower | significantly attenuated; also recorded: reversal | prevents | prevents | – | – | – | –
3 | CCCC(=O)N[C@@H](Cc1ccc(O)cc1)C(=O)NCCCCNCCCNCCCN [PhTX-433] | – | – | – | – | – | – | – | – | – | – | – | – | – | – | – | blocked the majority of eEPSCs | – | – | –
4 | O=C1NC(=O)C(c2ccccc2)(c2ccccc2)N1 [phenyloin] | – | – | – | – | – | – | – | – | – | – | – | – | – | – | – | – | ~50% | no effect | –
5 | CC1(C)O[C@@H]2[C@@H](CO[C@@]3(COS(N)(=O)=O)OC(C)(C)O[C@@H]23)O1 [topiramate] | significantly reduced to baseline normoxia levels | significantly reduced to baseline normoxia levels | blocked | reduced to near baseline levels; also recorded: blocked | reduced significantly; also recorded: blocked | blocked | significantly attenuated | attenuation | blocked | – | – | – | – | prevents | prevents | – | – | – | lower than lamotrigine and valproate

Reference: patent US8785446B2, “Treating post-seizure patients” (priority 2009, dated 2014)
